Patent US4563467A, “Derivatives of N-iminopyridinium betaines having anti-hypertensive and salidiuretic activity and their preparation” (Provesan S.A., priority 1983, dated 1986)
Structures can show the parent of a compound that is named as a salt. Where two headings read alike, the source gives them in different places.

Columns and labels:
[1] = Diuretic activity (method of Taylor and Topliss): elimination of urine and urine parameters over 8 hours; assay type: in vivo, Male Sprague-Dawley (HC/CFY) rats; settings: rat; for ED50: po, from regression of log dose against percentage effect; for ED50 / Elimination of urine, 8 h: 8 h; for Elimination in the urine: Cl / Elimination in the urine: K / Elimination in the urine: Na / Osmotic pressure of urine / Urine pH / Elimination of urine, 1 h / Elimination of urine, 2 h / Elimination of urine, 3 h / Elimination of urine, 4 h / Elimination of urine, 6 h / Elimination of urine, 8 h: 40 mg/kg; for Elimination in the urine: Cl / Elimination in the urine: K / Elimination in the urine: Na / Osmotic pressure of urine / Urine pH: over 8 hours; for Elimination of urine, 1 h / Elimination of urine, 2 h / Elimination of urine, 3 h / Elimination of urine, 4 h / Elimination of urine, 6 h / Elimination of urine, 8 h: probang
Protocol: ACTIVITY Method of R. M. Taylor and […]. Med. Pharm. Chem. 1962, 4, 312 Male Sprague-Dawley (HC/CFY) rats weighting between 150 and 200 grams are used. The animals are kept without food and water for 16 hours before the start of the test. The products are administered as a suspension in a 0.5% strength carboxymethylcellulose suspension in a 0.9% strength sodium chloride solution, using a probang, the amount administered being 50 ml/kg of body weight. […] The following parameters are determined in the urine: volume (ml/kg); sodium and potassium (milliequivalents/kg/8 h) (flame photometer); chloride (milliequivalents/kg/8 h) (chloride-meter); pH/8 h (pH-meter) and osmotic pressure (osmotic millimols/kg/8 h) (osmometer). The comparsion animals are given the 0.5% strength carboxymethylcellulose suspension in a 0.9% strength sodium chloride solution in an amount of […] of body weight.

[2] = Acute toxicity, oral, mouse; assay type: in vivo, CFLP-RE albino mice
Protocol: The product is administered orally in suspension in 5% strength gum arabic to CFLP-RE albino mice weighing 20-25 g and to CFY-RE Sprague-Dawley rats weighing 125-175 g. The volume administered is 25 ml/kg in the mouse except for the maximum dose of 12,800 mg/kg where a volume of 50 ml/kg is administered, and 10 ml/kg in the rat except for the maximum dose of 12,800 mg/kg where a volume of 30 ml/kg is administered.
It was impossible to determine the 50 percent lethal dose since no deaths occurred.

[3] = read-out: ED50, osmotic pressure (m osmol/kg/8 h)
[4] = read-out: ED50, volume of urine (ml/kg/8 h)

Row | Structure (SMILES) | ED50 [1, 3] | ED50 [1, 4] | Elimination in the urine: Cl [1] | Elimination in the urine: K [1] | Elimination in the urine: Na [1] | Osmotic pressure of urine [1] | Urine pH [1] | Elimination of urine, 1 h [1] | Elimination of urine, 2 h [1] | Elimination of urine, 3 h [1] | Elimination of urine, 4 h [1] | Elimination of urine, 6 h [1] | Elimination of urine, 8 h [1] | Mortality ([2]; female, 400 mg/kg) | Mortality ([2]; female, 800 mg/kg) | Mortality ([2]; male, 400 mg/kg) | Mortality ([2]; male, 800 mg/kg)
1 | NS(=O)(=O)c1cc(C2(O)NC(=O)c3ccccc32)ccc1Cl (stereo not shown) [Chlortalidone, reference compound] | 7.7 mg/kg | 6.9 mg/kg | 10.8 milliequivalents/kg/8 h | 1.9 milliequivalents/kg/8 h | 9.3 milliequivalents/kg/8 h | 29.9 osmotic millimols/kg/8 h | 6.6 | 8.7 mL/kg | 21.0 mL/kg | 30.9 mL/kg | 37.6 mL/kg | 45.6 mL/kg | 49.8 mL/kg |  |  |  | 
2 | NS(=O)(=O)c1cc(C(=O)[N-][n+]2ccccc2)ccc1Cl [Example 1, 1-[(4-chloro-3-sulfamylbenzoyl)-amino]pyridinium hydroxide inner salt] | 1.9 mg/kg | 4.1 mg/kg | 9.2 milliequivalents/kg/8 h | 1.5 milliequivalents/kg/8 h | 8.3 milliequivalents/kg/8 h | 25.5 osmotic millimols/kg/8 h | 6.6 | 7.3 mL/kg | 15.2 mL/kg | 27.6 mL/kg | 35.4 mL/kg | 40.5 mL/kg | 44.5 mL/kg |  |  |  | 
3 | Cc1cc(C)[n+]([N-]C(=O)c2ccc(Cl)c(S(N)(=O)=O)c2)c(C)c1 [Example 2, 1-[(4-chloro-3-sulfamylbenzoyl)-amino]-2,4,6-trimethylpyridinium hydroxide inner salt] | 1.2 mg/kg | 4.7 mg/kg | 11.8 milliequivalents/kg/8 h | 1.7 milliequivalents/kg/8 h | 9.1 milliequivalents/kg/8 h | 29.7 osmotic millimols/kg/8 h | 6.0 | 10.4 mL/kg | 22.3 mL/kg | 30.2 mL/kg | 36.0 mL/kg | 41.5 mL/kg | 45.6 mL/kg | 0/4 | 0/4 | 0/4 | 0/4
4 | Cc1cccc(C)[n+]1[N-]C(=O)c1ccc(Cl)c(S(N)(=O)=O)c1 [Example 3, 1-[(4-chloro-3-sulfamylbenzoyl)-amino]-2,6-dimethylpyridinium hydroxide inner salt] | 2.1 mg/kg | 4.6 mg/kg | 11.7 milliequivalents/kg/8 h | 1.8 milliequivalents/kg/8 h | 9.5 milliequivalents/kg/8 h | 34.2 osmotic millimols/kg/8 h | 6.1 | 8.4 mL/kg | 22.9 mL/kg | 31.9 mL/kg | 36.7 mL/kg | 45.2 mL/kg | 50.7 mL/kg |  |  |  | 
5 | NC(=O)c1ccc[n+]([N-]C(=O)c2ccc(Cl)c(S(N)(=O)=O)c2)c1 [Example 4, 1-[(4-chloro-3-sulfamylbenzoyl)-amino]-3-carbamylpyridinium hydroxide inner salt] |  |  | 7.0 milliequivalents/kg/8 h | 1.1 milliequivalents/kg/8 h | 6.6 milliequivalents/kg/8 h | 20.8 osmotic millimols/kg/8 h | 6.2 | 5.8 mL/kg | 8.6 mL/kg | 19.5 mL/kg | 24.2 mL/kg | 31.1 mL/kg | 37.5 mL/kg |  |  |  | 
6 | Cc1cc(C)[n+]([N-]C(=O)c2cc(S(N)(=O)=O)c(Cl)cc2NCc2ccco2)c(C)c1 [Example 5, 1-{[4-chloro-2-(2-furylmethylamino)-5-sulfamylbenzoyl]-amino}-2,4,6-trimethylpyridinium hydroxide inner salt] |  |  | 6.2 milliequivalents/kg/8 h | 1.3 milliequivalents/kg/8 h | 3.0 milliequivalents/kg/8 h | 16.6 osmotic millimols/kg/8 h | 6.1 | 1.1 mL/kg | 3.4 mL/kg | 8.0 mL/kg | 12.5 mL/kg | 18.4 mL/kg | 20.7 mL/kg |  |  |  | 
7 | NS(=O)(=O)c1cc(C(=O)[N-][n+]2c(-c3ccccc3)cc(-c3ccccc3)cc2-c2ccccc2)ccc1Cl [Example 6, 1-[(4-chloro-3-sulfamylbenzoyl)-amino]2,4,6-triphenylpyridinium hydroxide inner salt] |  |  | 8.1 milliequivalents/kg/8 h | 1.1 milliequivalents/kg/8 h | 6.6 milliequivalents/kg/8 h | 25.3 osmotic millimols/kg/8 h | 6.0 | 6.9 mL/kg | 14.2 mL/kg | 19.4 mL/kg | 22.2 mL/kg | 26.0 mL/kg | 27.4 mL/kg |  |  |  | 
8 | Cc1cc(C)[n+](NC(=O)c2ccc(Cl)c(S(N)(=O)=O)c2)c(C)c1.[Cl-] [Example 7, 1-[(4-chloro-3-sulfamylbenzoyl)-amino]-2,4,6-trimethylpyridinium chloride] |  |  | 9.3 milliequivalents/kg/8 h | 1.6 milliequivalents/kg/8 h |  | 31.0 osmotic millimols/kg/8 h | 6.3 | 6.2 mL/kg | 18.6 mL/kg | 28.4 mL/kg | 36.1 mL/kg | 47.3 mL/kg | 52.4 mL/kg |  |  |  | 
9 | Cc1cc(C)[n+](NC(=O)c2cc(S(N)(=O)=O)c(Cl)cc2NCc2ccco2)c(C)c1.Cl.[Cl-] [Example 8, 1-{[4-chloro-2-(2-furylmethylamino)-5-sulfamylbenzoyl]-amino}-2,4,6-trimethylpyridinium chloride hydrochloride] |  |  | 7.2 milliequivalents/kg/8 h | 1.2 milliequivalents/kg/8 h | 5.9 milliequivalents/kg/8 h | 23.4 osmotic millimols/kg/8 h | 6.7 | 0.0 mL/kg | 11.9 mL/kg | 19.6 mL/kg | 28.5 mL/kg | 34.4 mL/kg | 39.2 mL/kg |  |  |  | 
10 | NS(=O)(=O)c1cc(C(=O)N[n+]2c(-c3ccccc3)cc(-c3ccccc3)cc2-c2ccccc2)ccc1Cl.[Cl-] [Example 9, 1-[(4-chloro-3-sulfamylbenzoyl)-amino]-2,4,6-triphenylpyridinium chloride] |  |  | 7.5 milliequivalents/kg/8 h | 1.2 milliequivalents/kg/8 h | 6.0 milliequivalents/kg/8 h | 25.1 osmotic millimols/kg/8 h | 6.2 | 5.2 mL/kg | 12.6 mL/kg | 16.8 mL/kg | 19.0 mL/kg | 21.5 mL/kg | 25.3 mL/kg |  |  |  | 
